# Experimental data published in ChEMBL document CHEMBL1136613, “2-(3,4-Dihydro-1H-isoquinolin-2yl)-pyridines as a novel class of NR1/2B subtype selective NMDA receptor antagonists” (Bioorg Med Chem Lett, 2003).
# Several values for one entry are separate records, joined by “and”; a condition that tells them apart may be missing. Identical values can stand only once.
# Legend:
# [1] = target: T1, Muscarinic acetylcholine receptor M1 (Homo sapiens, UniProt P11229)
# T1 sequence (P11229 whole entry): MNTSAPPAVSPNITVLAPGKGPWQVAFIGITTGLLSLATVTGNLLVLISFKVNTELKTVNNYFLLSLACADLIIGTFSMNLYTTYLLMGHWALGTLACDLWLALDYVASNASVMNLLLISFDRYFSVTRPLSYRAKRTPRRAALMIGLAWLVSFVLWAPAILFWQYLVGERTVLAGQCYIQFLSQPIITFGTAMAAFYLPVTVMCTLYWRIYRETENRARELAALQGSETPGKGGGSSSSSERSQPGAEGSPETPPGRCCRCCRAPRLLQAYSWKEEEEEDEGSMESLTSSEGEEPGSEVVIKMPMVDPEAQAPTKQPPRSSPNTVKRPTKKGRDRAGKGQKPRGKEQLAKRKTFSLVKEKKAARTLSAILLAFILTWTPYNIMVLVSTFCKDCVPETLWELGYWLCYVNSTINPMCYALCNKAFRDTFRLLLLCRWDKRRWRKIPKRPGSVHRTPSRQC
# Description: Displacement of [3H]pirenzepine from M1 receptor
# [2] = target: Glutamate [NMDA] receptor
# Description: Binding affinity against NMDA receptor by displacement of [3H]Ro-256981
# [3] = target: T2, Adrenergic receptor alpha-1 (Homo sapiens, UniProt P35348+P25100+P35368); assay: Displacement of [3H]prazosin from Alpha-1 adrenergic receptor; type: protein assay
# T2 sequence (P35348 whole entry): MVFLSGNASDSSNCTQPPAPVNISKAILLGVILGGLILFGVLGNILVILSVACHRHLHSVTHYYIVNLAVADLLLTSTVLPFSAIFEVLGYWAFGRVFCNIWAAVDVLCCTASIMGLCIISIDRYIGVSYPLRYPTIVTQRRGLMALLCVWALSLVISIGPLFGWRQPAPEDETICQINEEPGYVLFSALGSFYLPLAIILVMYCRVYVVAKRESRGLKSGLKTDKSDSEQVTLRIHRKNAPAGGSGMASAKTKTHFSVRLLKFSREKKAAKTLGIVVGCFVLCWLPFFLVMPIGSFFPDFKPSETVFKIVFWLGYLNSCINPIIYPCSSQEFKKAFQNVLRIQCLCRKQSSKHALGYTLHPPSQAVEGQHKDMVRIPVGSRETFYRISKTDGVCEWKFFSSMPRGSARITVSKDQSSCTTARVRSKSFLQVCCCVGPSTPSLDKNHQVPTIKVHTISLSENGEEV
# T2 sequence (P25100 whole entry): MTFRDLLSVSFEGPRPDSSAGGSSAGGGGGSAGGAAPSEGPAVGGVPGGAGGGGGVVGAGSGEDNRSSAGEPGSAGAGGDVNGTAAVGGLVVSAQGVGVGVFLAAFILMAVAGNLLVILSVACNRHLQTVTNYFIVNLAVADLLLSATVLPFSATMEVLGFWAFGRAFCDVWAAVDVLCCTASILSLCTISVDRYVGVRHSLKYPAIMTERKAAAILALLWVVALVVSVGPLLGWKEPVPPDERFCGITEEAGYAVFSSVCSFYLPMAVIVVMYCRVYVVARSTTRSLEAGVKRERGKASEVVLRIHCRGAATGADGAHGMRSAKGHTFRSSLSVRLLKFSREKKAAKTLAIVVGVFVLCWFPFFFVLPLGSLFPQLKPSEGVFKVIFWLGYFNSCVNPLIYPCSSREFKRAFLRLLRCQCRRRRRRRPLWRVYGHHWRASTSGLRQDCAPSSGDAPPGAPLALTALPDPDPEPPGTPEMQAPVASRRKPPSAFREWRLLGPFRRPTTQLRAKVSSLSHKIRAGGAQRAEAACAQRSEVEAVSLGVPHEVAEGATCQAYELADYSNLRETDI
# T2 sequence (P35368 whole entry): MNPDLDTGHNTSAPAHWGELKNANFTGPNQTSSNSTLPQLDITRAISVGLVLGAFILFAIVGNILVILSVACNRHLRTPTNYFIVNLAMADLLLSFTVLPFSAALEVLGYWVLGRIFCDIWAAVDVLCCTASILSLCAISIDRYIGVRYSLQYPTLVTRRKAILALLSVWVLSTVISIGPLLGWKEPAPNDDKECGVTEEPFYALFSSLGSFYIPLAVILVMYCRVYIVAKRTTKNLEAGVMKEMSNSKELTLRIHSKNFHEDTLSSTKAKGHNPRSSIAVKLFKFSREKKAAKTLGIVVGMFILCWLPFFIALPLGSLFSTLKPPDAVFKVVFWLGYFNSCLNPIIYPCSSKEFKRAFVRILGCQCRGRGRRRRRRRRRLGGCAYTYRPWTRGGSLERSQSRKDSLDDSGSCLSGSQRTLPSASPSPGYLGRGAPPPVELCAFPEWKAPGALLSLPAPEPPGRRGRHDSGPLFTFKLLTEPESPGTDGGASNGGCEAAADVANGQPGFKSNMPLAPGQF
# Mus musculus [4] = assay: In vivo activity was measured in mice after ip administration using standard sound-induced seizures assay; type: functional
# Mus musculus [5] = assay: In vivo activity was measured i mice after ip administration using standard sound-induced seizures assay; type: functional
# Description for physchem: Dissociation constant (pKa)
Structure (SMILES),Ki [1] [nM],Ki [2],pKa (physchem),Ki [3] [nM],ED50 (Mus musculus [4]) [mg/kg],ED50 (Mus musculus [5]) [mg/kg]
CNc1ccnc(N2CCc3ccccc3C2)c1,1200,8 nM and 19 nM,8.8,,,
Cc1cc(N)cc(N2CCc3ccccc3C2)n1,2600,5 nM,9,730,,
CCc1cc(N)cc(N2CCc3ccccc3C2)n1,2500,3 nM,9,670,,
Nc1ccnc(N2CCc3ccccc3C2)c1,1900,3 nM,8.5,1200,7,
CN(C)c1ccnc(N2CCc3ccccc3C2)c1,150,8 nM,8.8,490,,
Cc1ccnc(N2CCc3ccccc3C2)c1,,380 nM,6.6,,,
c1ccc(N2CCc3ccccc3C2)nc1,,750 nM,6.4,,,
Cc1cc(N)nc(N2CCc3ccccc3C2)c1,,110 nM,6.5,,,
Brc1ccc(N2CCc3ccccc3C2)nc1,,7500 nM,3,,,
Cc1cnc(N2CCc3ccccc3C2)cc1NCCO,6500,8 nM,9,3200,,
CC(=O)Nc1ccnc(N2CCc3ccccc3C2)c1,,380 nM,6.5,,,
Nc1cccc(N2CCc3ccccc3C2)n1,,190 nM,6,,,
Cc1ccc(N2CCc3ccccc3C2)nc1,,,6.5,,,
Nc1cc(N2CCc3ccccc3C2)nc2c1CCC2,510,9 nM,9.4,730,,
Cc1cnc(N2CCc3ccccc3C2)cc1N,870,4 nM,8.7,1000,,
Brc1cccc(N2CCc3ccccc3C2)n1,,15000 nM,2,,,
CCOC(=O)C(=O)Nc1cc(C)nc(N2CCc3ccccc3C2)c1,,260 nM,6.5,,,
Cc1cc(NCCO)cc(N2CCc3ccccc3C2)n1,3800,4 nM,9.2,3300,,
OCCNc1ccnc(N2CCc3ccccc3C2)c1,6100,2 nM,8.9,2300,13,
c1ccc(CNc2ccnc(N3CCc4ccccc4C3)c2)cc1,,150 nM,8.6,,,
Nc1cccnc1N1CCc2ccccc2C1,,380 nM,5,,,
Nc1ccc(N2CCc3ccccc3C2)nc1,,1100 nM,5.8,,,
Nc1cc(CO)nc(N2CCc3ccccc3C2)c1,1100,4 nM,8.1,1700,,
OCCNc1cc(N2CCc3ccccc3C2)nc2ccccc12,,3.5 nM,,,,< 12
"C[C@@H](CN1CCC(Cc2ccccc2)CC1)[C@@H](O)c1ccc(O)cc1 (single isomer, unassigned)",,6 nM,,,13,
C[C@@H]([C@@H](O)c1ccc(O)cc1)N1CCC(O)(c2ccccc2)CC1 [TRAXOPRODIL],,,,,13,
